# Assay results as given in patent US20070148660A1, “Treatment of maladaptive substance use with H-ras antagonists” (The Regents of the University of California, priority 2005, published 2007).
# Marks after values point to notes of the source that are not given here.
# Columns and labels:
# NMDAR = test: NMDAR-mediated EPSCs, whole-cell voltage clamp, hippocampal CA1; type: cell-based, mouse; settings: for slowing of the weighted decay time compared to the control: 80 mM ethanol; for % Fast / τF / τS / τW: double exponential fit; for τW: 0 min 47.4 ms
# Protocol: Electrophysiological recordings were performed in C57BL/6J mice ranging from P21 to P26. Briefly, mice were anesthetized with halothane and decapitated as per University of California, San Francisco animal care guidelines. Horizontal sections of the hippocampus ([…]) were prepared with a vibratome (Leica, Nussloch, Germany). Slices were placed in a holding chamber and allowed to recover for at least 1 hr before being placed in the recording chamber and superfused with aCSF saturated with 95% O2/5% CO2 and containing (in mM): 119 NaCl, 1.6 KCl, 1.0 NaH2PO4, 1.3 MgCl2 (for EPSCs) or 0.01 MgCl2 (for field excitatory postsynaptic potentials (fEPSPs)), 2.5 CaCl2, 26.2 NaHCO3 and 11 glucose. Picrotoxin (100 μM) was added to block gamma-aminobutyric acid-A (GABAA) receptor-mediated inhibitory synaptic transmission, and CNQX (for EPSCs) or NBQX (for fEPSPs) (10 μM) was added to block α-amino-3-hydroxy-5-methyl-4-isoxalepropionate (AMPA)/Kainate receptors. Cells were visualized using infrared differential interference contrast video microscopy.
# Whole-cell voltage clamp-recordings were made using an Axopatch ID or a MultiClamp 700A amplifier (Axon Instruments, Union City, Calif.). Electrodes (3.5-5.0 MΩ) contained (in mM): 120 Cesium methansulfonate, 20 HEPES, 0.4 EGTA, 2.8 NaCl, 5 TEA-Cl, 2.5 MgATP, and 0.25 NaGTP (pH 7.2-7.3), buffer at 270-285 mOsm. Series resistance (10-30 MΩ) and input resistance were monitored on-line with a 4 mV depolarizing step (50 ms) given just after every afferent stimulus. Recordings from the CA1 region of the hippocampus were obtained with a bipolar stimulating electrode that was placed 100-300 μm rostral to the recording electrode and was used to stimulate excitatory afferents at 0.1 Hz. Neurons were voltage-clamped at +40 mV to evoke NMDAR-mediated EPSCs. At this potential, NMDARs have a maximal open probability and the Mg^2+ block is removed. EPSCs were filtered at 2 kHz, digitized at 5-10 kHz and collected on-line using Igor Pro software (Wavemetrics, Lake Oswego, Oreg.) or pClamp 9 (Axon Instruments, Union City, Calif.). NMDAR example traces were constructed by averaging 20 EPSCs (200 sec) elicited at +40 mV during baseline, ethanol application, drug application or drug application with ethanol. To calculate the decay time (τ), Igor Pro software was used to fit exponential decay curves to averaged NMDAR-mediated EPSCs using the formula: y=A1exp(−invTau1*x)+A2exp(−invTau2X).
# adaptin β2 with TrkB = settings: 100 mM ethanol, 15 min, hippocampal slices
# Protocol: (§1) Transverse hippocampal slices ([…]) were prepared from 10- to 12-week-old C57BL/6J mice. Slices were allowed to recover for 90 min in artificial cerebrospinal fluid (aCSF) saturated with 95% O2/5% CO2 containing (in mM): 126 NaCl, 1.2 KCl, 1.2 NaH2PO4, 1.2 MgCl2, 2.4 CaCl2, 18 NaHCO3, and 11 glucose. Following recovery, slices were treated with aCSF (control) or ethanol at room temperature, after which the slices were rinsed in cold aCSF, and used either for cross-linking experiments, for Ras activity assay, or for immunoprecipitation. In experiments using Tat-H-Ras DN or the Tat-peptide, the slices were pretreated with either aCSF (control) or 2 μM Tat-H-Ras DN or Tat-peptide for 2 hrs at room temperature, followed by ethanol treatments.
# (§2) The treated slices were homogenized in ice-cold buffer containing 1% deoxycholate, protease and phosphatase inhibitors and (in mM): 250 sucrose, 20 Tris-HCl (pH 7.5), 2 EDTA and 10 EGTA. 500 μg of the protein was diluted with 1× immunoprecipitation buffer (1% Triton X-100 and (in mM): 150 NaCl, 10 Tris HCl (pH 7.4), 1 EDTA, 1 EGTA and 0.2 sodium orthovanadate) and incubated with 5 μg of the appropriate antibody, followed by an overnight incubation at 4° C. with protein G agarose beads. The beads were extensively washed, re-suspended in 2× sample buffer and boiled for 5-10 min. The samples were then subjected to SDS-PAGE followed by Western blotting with the appropriate antibodies.
# (§3) Proteins were separated by SDS-PAGE and blotted onto a nitrocellulose membrane. After blocking, the membranes were incubated with the specific primary antibody, followed by horseradish peroxidase-conjugated secondary antibody. Detection was obtained followed by enhanced chemiluminescent reaction (Amersham Biosciences), and processed using the STORM PhosphoImager (Amersham Biosciences). Results were quantified by NIH Image 1.61.
# Src kinase = settings: 100 mM ethanol, 15 min, hippocampal slices
# Protocol: as §1, §2, §3
# [1] = test system: adaptin β2 with the AMPAR subunit GluR1; settings: 100 mM ethanol, 15 min, hippocampal slices
# Protocol: as §1, §2, §3
# [2] = test system: NR2A subunit of the NMDAR; test: BS3 cross-linking, surface vs internalized NR2A in hippocampal slices; type: cell-based, mouse
# Protocol: as §1
# Cross-linking was performed as described previously (22), with minor modifications. Following treatment, the slices were placed in cold aCSF in the presence or absence of 2 mg/ml of the cross-linking reagent BS^3 for 45 min at 4° C. while shaking. Slices were then rinsed three times with cold aCSF containing 20 mM Tris (pH 7.6), followed by sonication in cold homogenization buffer (10% SDS, 10 mM EDTA, 100 mM Tris (pH 8.0), and protease and phosphatase inhibitor cocktails). The protein concentration was determined using the BCA assay, followed by SDS-PAGE and Western blot analysis. Data are expressed as ratio of normalized surface expressed or internalized receptors to the total receptor levels.
# as §3
# [3] = 15 min exposure to ethanol (80 mM), n=6
# [4] = 30 min exposure to ethanol (80 mM), n=6
structure (smiles),measurement,setting,value
CCO [ethanol],inhibition of EPSCs at low ethanol concentration,"NMDAR; 25 mM ethanol, n=18, data not shown",24±6%
same,effect of ethanol on the remaining portion of the NMDAR EPSCs,NMDAR; 80 mM ethanol bath applied after NVP-AAM077 0.4 μM,did not alter
same,slowing of the weighted decay time compared to the control,"NMDAR; after 15 min, n=6",33±14%
same,slowing of the weighted decay time compared to the control,"NMDAR; after 30 min, n=6",70±29%
same,% Fast,NMDAR; [3],12.5 ± 3.1%
same,τF,NMDAR; [3],34.5 ± 2.1 ms
same,τS,NMDAR; [3],256.3 ± 51.8* ms
same,τW,NMDAR; [3],62.2 ± 10* ms
same,τW,"NMDAR; 15 min exposure to ethanol (80 mM), n=6, listed as Ethanol",62 ± 10 ms
same,% Fast,NMDAR; [4],112.6 ± 2.0%
same,τF,NMDAR; [4],42.4 ± 4.4* ms
same,τS,NMDAR; [4],354.0 ± 91.1 ms
same,τW,NMDAR; [4],77.8 ± 14.1* ms
same,τW,"NMDAR; 30 min exposure to ethanol (80 mM), n=6, listed as Ethanol",78 ± 14 ms
same,inhibition of NMDAR-mediated EPSCs,"NMDAR; bath application of 80 mM ethanol, n=9, data not shown",37±7%
same,further decrease in remaining current,NMDAR; bath application of ethanol in the presence of ifenprodil (3 μM),36%
same,total reduction of NMDAR EPSCs,"NMDAR; ifenprodil (3 μM) plus ethanol, n=6",73±7%
same,interaction between TrkB and adaptin β2,adaptin β2 with TrkB,no change
same,decrease in the levels of active phosphorylated Src,Src kinase,approximately 40%
same,interaction between GluR1 and adaptin β2,[1],no change
same,change in subcellular localization of NR2A after ethanol washout,"[2]; 100 mM ethanol 15 min, washed out, 15 min recovery",not observed
same,intracellular level of NR2A,"[2]; 100 mM ethanol, 15 min, hippocampal slices",significant increase
same,NR2A internalization in Fyn+/+ and Fyn-/- mice,"[2]; 100 mM ethanol, 15 min, slices from Fyn+/+ and Fyn-/- mice",significantly enhanced
same,internalization of the NR2A subunits in Src+/+ mice,"[2]; 100 mM ethanol, 15 min, slices from Src+/+ mice",significantly increased
same,NR2A internalization in Src+/- mice upon ethanol,"[2]; 100 mM ethanol, 15 min, slices from Src+/- mice, NR2A internalized under basal conditions",no additional changes
same,surface expression of the NR2A subunit at lower ethanol concentrations,"[2]; ethanol as low as 25 mM, 15 min, hippocampal slices",reduction
